# Source: ChEMBL document CHEMBL1201862, “PubChem BioAssay data set” (2004)
# The source made the active and inactive calls.
# Columns and labels:
# [1] = target: T1, Delta-type opioid receptor (Homo sapiens, UniProt P41143); assay: HTS Image-Based Screen for Agonists of the DOR Receptor. [Related pubchem assays (depositor defined):AID1777, AID1786, AID2133]; assay type: functional
# [2] = target: Beta-galactosidase (Escherichia coli, UniProt Q8VNN2); assay type: functional
# [3] = target: T2, Mu-type opioid receptor (Homo sapiens, UniProt P35372); assay: HTS Image-Based Screen for Agonists of the MOR Receptor. [Related pubchem assays (depositor defined):AID1777, AID1785, AID1786, AID2133]; assay type: functional
# [4] = target: T3, Kappa-type opioid receptor (Homo sapiens, UniProt P41145); assay type: functional
# [5] = target: T3, Kappa-type opioid receptor; assay type: functional; remark: listed apart in the source
# [6] = target: T1, Delta-type opioid receptor; assay: HTS Image-Based Screen for Antagonists of the DOR Receptor. [Related pubchem assays (depositor defined):AID1777, AID1785, AID1786, AID2133]; assay type: functional
# [7] = target: T1, Delta-type opioid receptor; assay: SAR Analysis of Antagonists of the DOR Receptor using an Image-Based Assay - Set 2. [Related pubchem assays (depositor defined):AID1777, AID1785, AID1786, AID1966, AID2133, AID2136, AID2284, AID2285, AID2357]; assay type: functional
# [8] = target: T2, Mu-type opioid receptor; assay: SAR Analysis of Agonists of the MOR Receptor using an Image-Based Assay - Set 2. [Related pubchem assays (depositor defined):AID1777, AID1785, AID1786, AID1966, AID2133, AID2136, AID2284, AID2285, AID2352]; assay type: functional
# [9] = target: T2, Mu-type opioid receptor; assay: SAR Analysis of Antagonists of the MOR Receptor using an Image-Based Assay - Set 2. [Related pubchem assays (depositor defined):AID1777, AID1785, AID1786, AID1966, AID2133, AID2136, AID2284, AID2285, AID2420]; assay type: functional
# [10] = target: T1, Delta-type opioid receptor; assay: SAR Analysis of Agonists of the DOR Receptor using an Image-Based Assay - Set 2. [Related pubchem assays (depositor defined):AID1777, AID1785, AID1786, AID1966, AID2133, AID2136, AID2284, AID2285, AID2370]; assay type: functional
# [11] = target: Intestinal-type alkaline phosphatase (Mus musculus, UniProt P24822); assay: PubChem AID 488874; assay type: functional
# [12] = target: T4, Intestinal-type alkaline phosphatase (Homo sapiens, UniProt P09923); assay: activation of human intestinal alkaline phosphatase – biochemical, luminescent, uHTS hits, set 2, dose response (AID 488817); assay type: functional;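 also: potency of activators that raise enzyme activity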
# [13] = target: T4, Intestinal-type alkaline phosphatase; assay: human intestinal alkaline phosphatase activators, dose response, biochemical, luminescence, uHTS hits (AID 463120); assay type: functional
# [14] = target: T5, Alkaline phosphatase, tissue-nonspecific isozyme (Homo sapiens, UniProt P05186); assay: activation of tissue-nonspecific alkaline phosphatase – biochemical, TNAP isozyme, human IAP uHTS hits, selectivity assay for human IAP activator project, dose response (AID 488886); assay type: functional;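 also: potency of compounds raising TNAP activity as a selectivity check on IAP activators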
# T5 sequence (P05186 whole entry): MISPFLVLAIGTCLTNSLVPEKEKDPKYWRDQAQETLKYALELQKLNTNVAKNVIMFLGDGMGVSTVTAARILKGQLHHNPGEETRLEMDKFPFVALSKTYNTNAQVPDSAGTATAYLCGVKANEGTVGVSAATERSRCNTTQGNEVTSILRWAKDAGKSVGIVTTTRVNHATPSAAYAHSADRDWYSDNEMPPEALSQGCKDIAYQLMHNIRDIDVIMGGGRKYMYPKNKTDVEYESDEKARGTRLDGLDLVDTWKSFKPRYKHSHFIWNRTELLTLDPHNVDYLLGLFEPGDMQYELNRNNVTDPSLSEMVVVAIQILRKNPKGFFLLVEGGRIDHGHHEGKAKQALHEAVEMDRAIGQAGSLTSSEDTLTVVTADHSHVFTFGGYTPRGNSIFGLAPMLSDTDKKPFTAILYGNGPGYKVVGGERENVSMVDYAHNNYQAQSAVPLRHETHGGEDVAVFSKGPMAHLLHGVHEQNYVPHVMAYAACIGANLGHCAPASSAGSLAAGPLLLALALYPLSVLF
# [15] = tested on: HEK293; assay: cells; assay type: functional, cell-based; conditions: Homo sapiens
# [16] = tested on: HEK293; assay: NOD2 signaling inhibitors in MDP-stimulated cells, cell-based, uHTS, luminescence (AID 2001); assay type: functional; conditions: Homo sapiens
# [17] = tested on: HEK293; assay: cells; conditions: Homo sapiens
# [18] = tested on: HEK293; assay: cells; assay type: functional, cell-based; conditions: Homo sapiens; remark: listed apart in the source
# [19] = target: Nucleotide-binding oligomerization domain-containing protein 2 (Homo sapiens, UniProt Q9HC29); assay: inhibition of NOD2-driven NF-kB reporter – cell-based, luminescence, uHTS, HEK293 (AID 1566); assay type: functional
# [20] = target: Nucleotide-binding oligomerization domain-containing protein 1 (Homo sapiens, UniProt Q9Y239); assay: blockers of NOD1 pathway activity – revised, SAR follow-up (AID 2333); assay type: functional
# [21] = tested on: HEK293; assay: inhibition of NOD1-driven NF-kB reporter – cell-based, luminescence, uHTS, primary screen (AID 1578); assay type: functional; conditions: Homo sapiens
# [22] = target: Tumor necrosis factor (Homo sapiens, UniProt P01375); assay: analog potency on TNFa NF-kB signaling – cell-based, revised, SAR follow-up (AID 2337); assay type: functional
# [23] = tested on: HEK293; assay: cells; assay type: functional, cell-based; conditions: Homo sapiens; remark: listed apart in the source
# [24] = target: UDP-galactopyranose mutase (Mycobacterium tuberculosis, UniProt P9WIQ1); assay: Inhibitors of Mycobacterium tuberculosis UDP-galactopyranose mutase (UGM) enzyme Measured in Biochemical System Using Plate Reader - 2105-02_Inhibitor_Dose_CherryPick_Activity. [Related pubchem assays (depositor defined):AID504439]
# [25] = target: T6, Corticotropin-releasing factor receptor 2/Corticotropin-releasing factor-binding protein (Homo sapiens, UniProt P24387+Q13324); assay: Dose Response confirmation of uHTS hits for small molecule antagonists of the CRF-binding protein and CRF-R2 receptor complex.; assay type: functional; conditions: read-out: IC50_Mean
# T6 sequence (Q13324 whole entry): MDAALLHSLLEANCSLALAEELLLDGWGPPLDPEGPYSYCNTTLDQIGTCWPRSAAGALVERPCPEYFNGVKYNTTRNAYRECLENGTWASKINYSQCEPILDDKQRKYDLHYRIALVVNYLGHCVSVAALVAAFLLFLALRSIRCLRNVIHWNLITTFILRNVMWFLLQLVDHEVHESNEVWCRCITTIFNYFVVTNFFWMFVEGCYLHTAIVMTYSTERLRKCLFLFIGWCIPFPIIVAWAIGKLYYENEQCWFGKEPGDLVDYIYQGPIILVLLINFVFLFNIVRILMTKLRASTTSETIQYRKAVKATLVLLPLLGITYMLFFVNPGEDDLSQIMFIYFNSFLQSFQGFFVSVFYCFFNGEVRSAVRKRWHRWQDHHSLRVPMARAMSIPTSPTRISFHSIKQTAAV
# T6 sequence (P24387 whole entry): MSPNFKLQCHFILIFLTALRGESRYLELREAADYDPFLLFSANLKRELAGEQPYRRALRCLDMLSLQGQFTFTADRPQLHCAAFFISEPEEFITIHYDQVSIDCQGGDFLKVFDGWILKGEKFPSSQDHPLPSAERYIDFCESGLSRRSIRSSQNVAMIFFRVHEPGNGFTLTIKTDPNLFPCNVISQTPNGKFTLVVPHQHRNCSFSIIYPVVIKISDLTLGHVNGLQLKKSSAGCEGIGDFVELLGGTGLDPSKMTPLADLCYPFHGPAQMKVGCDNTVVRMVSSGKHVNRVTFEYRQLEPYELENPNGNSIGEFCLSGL
# [26] = Luminescence Cell-Based Dose Retest to Confirm Inhibitors of Cancer Stem Cells. [Related pubchem assays (depositor defined):AID2717, AID2721]; assay type: functional; conditions: Homo sapiens
# [27] = target: T7, Heat shock factor protein 1 (Mus musculus, UniProt P38532); assay: decrease of HSF1-responsive luciferase luminescence – cell-based, NIH3T3, dose retest, confirmation (AID 2382); assay type: functional;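 also: NIH3T3 fibroblasts with HSF1-driven luciferase reporter stressed by proteasome inhibitor MG132; luminescence from HSF1-driven luciferase expression after 8 hours of MG132 stress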
# T7 sequence (P38532 whole entry): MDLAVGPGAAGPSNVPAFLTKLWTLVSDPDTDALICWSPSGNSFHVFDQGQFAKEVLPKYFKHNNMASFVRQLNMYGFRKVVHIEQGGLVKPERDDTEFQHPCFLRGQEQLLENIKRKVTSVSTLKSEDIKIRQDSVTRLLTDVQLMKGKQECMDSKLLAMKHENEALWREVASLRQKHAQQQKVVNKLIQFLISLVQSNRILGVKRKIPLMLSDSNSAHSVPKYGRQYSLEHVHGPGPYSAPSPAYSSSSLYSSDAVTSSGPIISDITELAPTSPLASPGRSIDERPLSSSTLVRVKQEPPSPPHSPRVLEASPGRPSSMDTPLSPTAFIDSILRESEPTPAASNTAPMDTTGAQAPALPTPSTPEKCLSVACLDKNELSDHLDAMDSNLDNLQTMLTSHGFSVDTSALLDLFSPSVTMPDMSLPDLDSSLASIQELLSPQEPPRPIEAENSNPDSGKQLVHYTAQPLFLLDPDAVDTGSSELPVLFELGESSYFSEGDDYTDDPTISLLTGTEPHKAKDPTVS
# [28] = viability loss of HMLE_sh_eGFP cells – cell-based, luminescence, counter-screen for HMLE_sh_ECad selective toxicity project, dose response (AID 463074); assay type: functional, Homo sapiens;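 also: HMLE human mammary epithelial cells expressing control shRNA against eGFP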
# [29] = antiviral protection against BTV-induced cell death – arbovirus, BSR cells, confirmation (AID 1250); assay type: functional;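 also: protection from viral cytopathic effect measured as cell viability by ATP luminescence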
# [30] = target: T6, Corticotropin-releasing factor receptor 2/Corticotropin-releasing factor-binding protein; assay: activators of CRF receptor 2 with binding protein – uHTS hits, confirmation (AID 602473); assay type: functional; conditions: read-out: EC50_Mean
# [31] = blockers of CRF-binding protein–CRF-R2 complex – cell-based, uHTS hits, 384-well, dose response (AID 651639); assay type: functional, Homo sapiens; conditions: read-out: IC50_Mean
# T1 sequence (P41143 whole entry): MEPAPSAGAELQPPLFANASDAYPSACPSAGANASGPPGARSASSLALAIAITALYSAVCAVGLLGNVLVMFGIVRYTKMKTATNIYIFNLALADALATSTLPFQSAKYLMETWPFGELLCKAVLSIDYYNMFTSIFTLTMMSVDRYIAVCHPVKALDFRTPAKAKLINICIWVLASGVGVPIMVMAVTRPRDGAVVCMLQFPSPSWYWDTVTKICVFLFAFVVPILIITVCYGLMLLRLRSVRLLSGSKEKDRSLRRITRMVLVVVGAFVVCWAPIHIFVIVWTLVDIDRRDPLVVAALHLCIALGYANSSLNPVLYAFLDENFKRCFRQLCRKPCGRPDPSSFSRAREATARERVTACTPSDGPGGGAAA
# T2 sequence (P35372 whole entry): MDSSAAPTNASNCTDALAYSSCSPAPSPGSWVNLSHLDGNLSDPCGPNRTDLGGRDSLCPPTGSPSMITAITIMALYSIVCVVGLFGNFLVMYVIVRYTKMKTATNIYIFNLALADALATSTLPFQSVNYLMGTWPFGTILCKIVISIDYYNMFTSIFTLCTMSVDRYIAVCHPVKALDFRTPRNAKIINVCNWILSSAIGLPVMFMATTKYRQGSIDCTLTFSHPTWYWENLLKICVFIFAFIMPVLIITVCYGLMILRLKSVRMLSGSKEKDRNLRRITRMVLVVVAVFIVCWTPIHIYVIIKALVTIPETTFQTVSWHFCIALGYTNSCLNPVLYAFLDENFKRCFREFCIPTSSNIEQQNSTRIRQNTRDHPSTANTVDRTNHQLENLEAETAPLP
# T4 sequence (P09923 whole entry): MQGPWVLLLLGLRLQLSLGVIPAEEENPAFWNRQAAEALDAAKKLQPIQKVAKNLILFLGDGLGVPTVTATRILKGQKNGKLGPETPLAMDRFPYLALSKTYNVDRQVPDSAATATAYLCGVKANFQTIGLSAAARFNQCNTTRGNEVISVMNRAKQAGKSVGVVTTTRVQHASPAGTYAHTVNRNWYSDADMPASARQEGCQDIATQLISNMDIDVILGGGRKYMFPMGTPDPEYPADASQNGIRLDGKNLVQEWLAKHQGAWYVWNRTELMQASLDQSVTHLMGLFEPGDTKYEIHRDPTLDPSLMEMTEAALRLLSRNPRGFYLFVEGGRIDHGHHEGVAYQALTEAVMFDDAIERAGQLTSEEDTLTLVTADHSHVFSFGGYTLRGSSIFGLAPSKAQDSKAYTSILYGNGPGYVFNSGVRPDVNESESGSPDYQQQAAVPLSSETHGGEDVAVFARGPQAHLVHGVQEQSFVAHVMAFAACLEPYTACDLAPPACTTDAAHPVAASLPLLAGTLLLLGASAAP
# T3 sequence (P41145 whole entry): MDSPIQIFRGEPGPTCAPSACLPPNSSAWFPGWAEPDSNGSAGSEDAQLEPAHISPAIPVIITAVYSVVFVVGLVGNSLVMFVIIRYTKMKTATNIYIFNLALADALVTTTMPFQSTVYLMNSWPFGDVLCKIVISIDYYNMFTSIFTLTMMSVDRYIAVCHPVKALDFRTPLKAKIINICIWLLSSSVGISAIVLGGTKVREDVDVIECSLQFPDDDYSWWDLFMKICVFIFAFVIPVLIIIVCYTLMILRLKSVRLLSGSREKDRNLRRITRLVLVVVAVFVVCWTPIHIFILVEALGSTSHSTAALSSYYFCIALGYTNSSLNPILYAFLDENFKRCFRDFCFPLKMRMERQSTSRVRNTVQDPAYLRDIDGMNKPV
# Chain of Beta-galactosidase (Q8VNN2 whole entry): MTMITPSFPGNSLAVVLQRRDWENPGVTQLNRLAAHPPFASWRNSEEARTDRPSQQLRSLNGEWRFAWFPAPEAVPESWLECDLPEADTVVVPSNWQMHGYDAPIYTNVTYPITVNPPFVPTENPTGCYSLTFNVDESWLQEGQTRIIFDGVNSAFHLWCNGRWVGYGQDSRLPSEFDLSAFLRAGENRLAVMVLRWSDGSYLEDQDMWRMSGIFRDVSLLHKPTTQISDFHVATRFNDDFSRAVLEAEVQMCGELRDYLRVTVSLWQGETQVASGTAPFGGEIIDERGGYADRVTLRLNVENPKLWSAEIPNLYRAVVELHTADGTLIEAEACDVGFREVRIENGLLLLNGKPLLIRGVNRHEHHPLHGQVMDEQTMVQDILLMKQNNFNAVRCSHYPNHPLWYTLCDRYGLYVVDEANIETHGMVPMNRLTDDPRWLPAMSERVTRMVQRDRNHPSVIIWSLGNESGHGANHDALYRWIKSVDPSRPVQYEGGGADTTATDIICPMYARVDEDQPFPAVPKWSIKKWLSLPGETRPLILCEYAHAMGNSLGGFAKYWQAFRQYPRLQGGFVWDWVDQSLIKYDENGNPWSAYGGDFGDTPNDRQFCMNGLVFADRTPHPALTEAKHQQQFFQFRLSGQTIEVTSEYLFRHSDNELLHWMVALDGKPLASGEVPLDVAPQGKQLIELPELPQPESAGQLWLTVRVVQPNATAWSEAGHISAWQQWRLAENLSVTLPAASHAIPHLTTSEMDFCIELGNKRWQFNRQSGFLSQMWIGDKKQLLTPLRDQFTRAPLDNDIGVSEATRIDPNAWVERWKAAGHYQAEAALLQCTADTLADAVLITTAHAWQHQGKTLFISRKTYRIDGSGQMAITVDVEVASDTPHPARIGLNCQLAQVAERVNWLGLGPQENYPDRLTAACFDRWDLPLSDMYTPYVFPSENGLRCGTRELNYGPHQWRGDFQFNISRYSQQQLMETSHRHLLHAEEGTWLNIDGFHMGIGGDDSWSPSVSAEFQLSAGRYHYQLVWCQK
# Chain of Intestinal-type alkaline phosphatase (Mus musculus, UniProt P24822) (P24822 whole entry): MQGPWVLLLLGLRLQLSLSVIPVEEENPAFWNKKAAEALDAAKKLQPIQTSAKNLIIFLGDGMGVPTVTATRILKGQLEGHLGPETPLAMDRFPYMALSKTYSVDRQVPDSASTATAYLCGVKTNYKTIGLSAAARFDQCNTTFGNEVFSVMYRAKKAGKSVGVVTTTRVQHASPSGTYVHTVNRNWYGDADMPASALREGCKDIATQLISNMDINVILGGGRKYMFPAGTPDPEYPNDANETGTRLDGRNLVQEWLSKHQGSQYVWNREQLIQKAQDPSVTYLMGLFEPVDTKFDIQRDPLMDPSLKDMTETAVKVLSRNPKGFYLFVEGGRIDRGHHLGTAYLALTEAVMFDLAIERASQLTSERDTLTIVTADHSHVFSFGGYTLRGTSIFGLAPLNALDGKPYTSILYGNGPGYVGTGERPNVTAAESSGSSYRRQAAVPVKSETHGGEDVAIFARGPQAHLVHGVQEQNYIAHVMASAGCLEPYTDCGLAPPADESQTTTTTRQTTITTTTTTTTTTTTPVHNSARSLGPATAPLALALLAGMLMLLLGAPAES
# Chain of Nucleotide-binding oligomerization domain-containing protein 1 (Q9Y239 whole entry, the tested form may be a part): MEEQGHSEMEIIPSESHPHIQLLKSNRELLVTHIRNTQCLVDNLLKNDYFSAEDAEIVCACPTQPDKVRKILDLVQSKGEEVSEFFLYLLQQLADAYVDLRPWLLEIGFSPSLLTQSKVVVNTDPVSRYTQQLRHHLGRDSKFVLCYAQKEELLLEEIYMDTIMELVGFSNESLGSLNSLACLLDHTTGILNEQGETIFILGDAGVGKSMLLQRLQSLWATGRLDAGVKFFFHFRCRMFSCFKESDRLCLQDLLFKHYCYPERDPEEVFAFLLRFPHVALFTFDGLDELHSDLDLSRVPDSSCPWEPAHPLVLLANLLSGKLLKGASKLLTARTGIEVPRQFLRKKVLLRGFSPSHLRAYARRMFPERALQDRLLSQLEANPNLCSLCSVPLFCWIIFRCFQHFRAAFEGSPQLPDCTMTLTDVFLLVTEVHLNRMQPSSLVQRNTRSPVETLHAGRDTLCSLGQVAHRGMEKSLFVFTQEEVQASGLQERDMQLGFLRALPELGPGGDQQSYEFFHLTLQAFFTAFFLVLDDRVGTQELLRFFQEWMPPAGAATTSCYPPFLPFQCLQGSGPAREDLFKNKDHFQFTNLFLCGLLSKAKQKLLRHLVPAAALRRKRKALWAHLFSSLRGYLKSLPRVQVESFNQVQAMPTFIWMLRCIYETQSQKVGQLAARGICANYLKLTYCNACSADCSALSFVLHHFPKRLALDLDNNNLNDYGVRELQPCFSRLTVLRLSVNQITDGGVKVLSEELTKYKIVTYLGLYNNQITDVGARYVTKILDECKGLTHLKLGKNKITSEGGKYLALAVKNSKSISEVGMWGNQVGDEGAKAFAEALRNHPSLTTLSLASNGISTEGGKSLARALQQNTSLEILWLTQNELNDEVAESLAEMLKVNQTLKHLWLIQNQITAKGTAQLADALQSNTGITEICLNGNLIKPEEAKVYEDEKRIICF
# Chain of Tumor necrosis factor (P01375 whole entry): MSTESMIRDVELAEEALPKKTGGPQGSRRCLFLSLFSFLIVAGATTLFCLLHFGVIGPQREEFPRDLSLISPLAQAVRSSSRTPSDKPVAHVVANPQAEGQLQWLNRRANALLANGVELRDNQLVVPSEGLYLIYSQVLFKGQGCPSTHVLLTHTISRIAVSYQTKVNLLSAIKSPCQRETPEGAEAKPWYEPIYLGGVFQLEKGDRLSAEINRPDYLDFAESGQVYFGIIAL
# Chain of UDP-galactopyranose mutase (P9WIQ1 whole entry): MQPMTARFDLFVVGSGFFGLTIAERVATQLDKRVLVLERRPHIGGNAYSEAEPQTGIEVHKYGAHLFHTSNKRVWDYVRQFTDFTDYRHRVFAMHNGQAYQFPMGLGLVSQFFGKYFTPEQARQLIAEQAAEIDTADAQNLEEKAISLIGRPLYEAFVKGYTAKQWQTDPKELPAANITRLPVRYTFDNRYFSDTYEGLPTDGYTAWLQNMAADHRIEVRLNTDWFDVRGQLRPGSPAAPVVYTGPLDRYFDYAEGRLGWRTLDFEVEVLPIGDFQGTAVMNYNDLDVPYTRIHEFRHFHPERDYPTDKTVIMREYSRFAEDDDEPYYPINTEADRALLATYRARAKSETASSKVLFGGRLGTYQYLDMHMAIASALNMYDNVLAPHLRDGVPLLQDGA
smiles,measurement,setting,value
CCCN(CCC)CC(O)Cn1cc(/C=C/C(=O)c2cccs2)c2ccccc21 (stereo unspecified),EC50,[1],> 32 µM (inactive)
same,EC50,[2],> 31.5 µM (inactive)
same,EC50,[3],> 32 µM (inactive)
same,IC50,[4],11.3 µM (active)
same,IC50,[5],4.14 µM
same,IC50,[6],> 32 µM (inactive)
Clc1ccc(CSc2nnc(-c3ccccn3)n2Cc2ccco2)cc1Cl,IC50,[7],> 32 µM (inactive)
same,EC50,[8],> 32 µM (inactive)
same,IC50,[9],> 32 µM (inactive)
same,EC50,[10],> 32 µM (inactive)
CSCCC(NS(=O)(=O)c1ccccc1F)C(=O)NNC(=O)c1csc(N2CCOCC2)n1 (stereo unspecified),IC50,[11],70.1 µM (active)
same,EC50,[12],10.6 µM (active)
same,EC50,[13],8.88 µM (active)
same,EC50,[14],26.4 µM (active)
O=C(/C=C/c1cccs1)Nc1sc2c(c1C(=O)O)CCCC2,IC50,[15],> 20 µM (inactive)
same,IC50,[16],> 20 µM (inactive)
same,IC50,[17],> 20 µM (inactive)
same,IC50,[18],> 20 µM (inactive)
same,EC50,[19],> 20 µM (inactive)
same,IC50,[20],6.42 µM (active)
same,EC50,[21],8.28 µM (active)
same,IC50,[22],> 20 µM (inactive)
same,IC50,[23],> 20 µM (inactive)
COCCCNC(=O)Cn1cc(/C=C2\C(=O)NC(=O)N(c3ccccc3F)C2=O)c2ccccc21,AC50,[24],43.7 µM (active)
CC(C)Cc1csc(NC(=O)c2ccc(F)cc2)c1C(=O)O,IC50,[25],10.3 µM (active)
same,AC50,[26],25.9 µM (active)
same,EC50,[27],9.87 µM (active)
same,AC50,[28],52.3 µM (active)
same,IC50,[29],36.3 µM (active)
same,EC50,[30],> 53 µM (inactive)
same,IC50,[31],> 20 µM (inactive)
